# Experimental data reported in US10314819B2, “Solid state forms of Eluxadoline” (TEVA PHARMACEUTICALS INTERNATIONAL GMBH, priority 2015, dated 2019).
# How the values were obtained:
# Type in all cases: physicochemical
# [1] = Polymorph stability on storage at various relative humidity (PXRD)
# Protocol: Sample after being powdered in a mortar and pestle is applied directly on a silicon plate holder. The X-ray powder diffraction pattern was measured with Philips X'Pert PRO X-ray powder diffractometer, equipped with Cu irradiation source=1.54184 Å(Ångström), X'Celerator (2.022° 2θ) detector. Scanning parameters: angle range: 3-40 deg., step size 0.0167, time per step 37 s, continuous scan.
# (§1) The obtained amorphous form was stored at various conditions, and the PXRD was analyzed after 3 and 7 days:
# The obtained pure amorphous form was stored at various conditions, and the PXRD was analyzed after 3 and 7 days:
# (§2) The obtained form alpha was stored at various conditions, and the PXRD was analyzed after 3 and 8 days:
# (§3) The obtained amorphous form was stored at various conditions of relative humidity, and the PXRD was obtained after 1M (Table 4):
# (§4) The obtained amorphous form was stored at various conditions, and the PXRD was obtained after 2M (Table 5):
# (§5) XRPD pattern is shown in FIG. 16; SEM image is shown in FIG. 17; DSC thermogram is shown in FIG. 21 and TGA thermogram is shown in FIG. 22. The obtained form alpha was stored at various conditions, and the PXRD was obtained after 8, 14, and 21 days (Table 6): […]
# [2] = Specific surface area (SSA), BET nitrogen
# Protocol: Specific Surface Area (SSA) measurements (Bet Nitrogen) were determined using a Micromeritics ASAP 2000, specific surface area analyzer. Samples were subjected to the BET nitrogen adsorption analysis to determine the specific surface of the samples.
# Sample tube: 10 cc bulb with ½″ stem
# Sample mass: Approximately ½ full cell
# Sample preparation: Degassing with nitrogen
# Outgassing conditions: 40° C. (30 min)
# Isothermal collection point: 20 adsorption points, in the range 0-1 P/P0
# Isothermal data analysis range: 5 point BET in the range 0.05-0.20 P/P0
# Equilibration interval: 5 s
# Equilibration time out: 600 s
# [3] = Texture analysis / density at 0.2 MPa; settings: 200 mg sample compressed in steel mould
# Protocol: A simple and low sample consuming method for evaluation of the packing density of powders were obtained as compression profiles under low pressures using a die and a flat-faced punch fitted on a TA-XTplus Texture analyser (Stable Micro Systems Ltd., Godalming, UK). The small amount of 200 mg of sample is compressed in a steel mould (with the rate of displacement 0.03 mm/s). Also, a cyclic procedure (similar to tapping) was performed at maximal compressive displacement 0.5 mm, then retracting, relaxation for 15 s and then repeated compressive steps (altogether up to 20 steps).
# [4] = Bulk density/tapped density, Hausner ratio and Carr index (Ph. Eur. 2.9.34. Method 1); settings: PSD/μm 3/8/24
# Protocol: Bulk density/tapped density and corresponding Hausner ratio and Carr index were determined according to Ph. Eur. 2.9.34. Method 1.
# [5] = Dissolution in 50 mM phosphate buffer pH = 7.4 at 37° C.; settings: 50 mM phosphate buffer pH = 7.4, 37° C.
# Protocol: Samples were prepared and analysed in duplicate. About 20 mg of each sample were weighed into 500 ml Erlenmeyer flask, 200 ml of 50 mM phosphate buffer pH=7.4, previously heated to 37° C. were added and flasks were shaken at 110 rpm for 60 minutes at 37±0.2° C. in an incubator shaker. 3 ml aliquots were taken at 5, 10, 20, 30, 45 and 60 min, filtered through 0.45 μm Chromafil Xtra RC 45/25 syringe filter and analysed by UV/VIS spectrometer (absorbance at 203 nm).
# The measurement was performed using the following instruments: • pH/Ion meter PHM 240, MeterLab, Radiometer Analytical • Incubator shaker Innova 4080, New Brunswick Scientific, 19 mm diameter circular orbit • UV/VIS spectrometer Varian Cary 50 Bio, 1 mm quartz cell Results of Eluxadoline samples dissolution in 50 mM phosphate buffer pH=7.4 are summarized in Table 8 below: […]
# [6] = % weight loss / water content (TGA, KF) after storage at various relative humidity; settings: for % weight loss/water cont. - after 21 days, TGA: TGA up to 121° C.
# Protocol: as §1, §2, §3, §4, §5
structure (smiles),measurement,setting,value
COc1ccc(CN(C(=O)[C@@H](N)Cc2c(C)cc(C(N)=O)cc2C)[C@@H](C)c2nc(-c3ccccc3)c[nH]2)cc1C(=O)O [Example 22],PXRD results - after 21 days,"[1]; 0% RH, 21 days",alpha
same,PXRD results - after 21 days,"[1]; 20% RH, 21 days",alpha
same,PXRD results - after 21 days,"[1]; 40% RH, 21 days",alpha
same,PXRD results - after 21 days,"[1]; 60% RH, 21 days",alpha
same,PXRD results - after 21 days,"[1]; 80% RH, 21 days",alpha
same,PXRD results - after 21 days,"[1]; 100% RH, 21 days",alpha
same,PXRD results - after 21 days,[1]; As is,alpha
same,SSA,[2],9.63 m^2/g
same,Density at 0.2 MPa,[3],0.4707 mg/mm^3
same,Bulk density,[4],0.33 mg/mm^3
same,Carr's index,[4],14.93%
same,Flow character (Carr's index),[4],good
same,Hausner ratio,[4],1.18
same,Tapped density,[4],0.39 mg/mm^3
same,% dissolved,[5]; 5 min,83.62%
same,% dissolved,[5]; 10 min,91.02%
same,% dissolved,[5]; 20 min,95.48%
same,% dissolved,[5]; 30 min,95.87%
same,% dissolved,[5]; 45 min,96.56%
same,% dissolved,[5]; 60 min,96.64%
same,"% weight loss/water cont. - after 21 days, TGA","[6]; 0% RH, 21 days",TGA-0.96%
same,"% weight loss/water cont. - after 21 days, TGA","[6]; 20% RH, 21 days",TGA-1.26%
same,"% weight loss/water cont. - after 21 days, TGA","[6]; 40% RH, 21 days",TGA-1.46%
same,"% weight loss/water cont. - after 21 days, TGA","[6]; 60% RH, 21 days",TGA-6.30%
same,"% weight loss/water cont. - after 21 days, TGA","[6]; 80% RH, 21 days",TGA-7.00%
same,"% weight loss/water cont. - after 21 days, TGA","[6]; 100% RH, 21 days",TGA-9.01%
same,"% weight loss/water cont. - after 21 days, KF",[6]; As is,1.12%
same,"% weight loss/water cont. - after 21 days, TGA",[6]; As is,0.95%
